For one experiment, the target named is T1, Helios (Homo sapiens, UniProt Q96SW2+Q9UKS7).
T1 construct: fluorescently labelled antibodies against Helios and Ikaros; endogenous in cells; host or cells: Jurkat cells
Put plainly: Helios Cellular Degradation Assay (flow cytometry, Helios-PE antibody staining, 72 h). The format is cell-based. To be noted: Jurkat cells, 72 h incubation, flow cytometry; for Dmax: Jurkat, read-out: Helios Dmax. Summed up: (§1)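 Jurkat cells (80,000/well, RPMI+10% FBS) were exposed to compound for 72 h at 37 °C, then fixed, permeabilized and co-stained for 1 h with Ikaros-Alexa488 and Helios-PE antibodies. Intracellular protein levels were read by flow cytometry.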
On the technique in general: A flow cytometer gives signals particle by particle.

Another experiment concerns the target T2, Ikaros (Homo sapiens, UniProt Q13422).
T2 construct: fluorescently labelled antibodies against Helios and Ikaros; endogenous in cells; host or cells: Jurkat cells
Kind of experiment: Helios Cellular Degradation Assay, Ikaros readout (flow cytometry, Ikaros-Alexa488 antibody staining, 72 h). The format is cell-based. Conditions: Jurkat cells, 72 h incubation, flow cytometry; for Dmax: Jurkat, read-out: Ikaros Dmax. An outline of the steps:
as §1

Experimental findings from US11548870B2, “Compounds useful as inhibitors of helios protein” (Bristol-Myers Squibb Company, priority 2019, dated 2023) are described below.

In general, DC50 refers to the concentration giving 50% degradation. A higher DC50 goes with a less potent degrader. Broadly, the Dmax is the greatest extent of degradation seen.

“And” between values parts separate entries of the source, which are not always exact repeats. Equal entries are not always repeated.

T1 sequence (Q9UKS7 whole entry): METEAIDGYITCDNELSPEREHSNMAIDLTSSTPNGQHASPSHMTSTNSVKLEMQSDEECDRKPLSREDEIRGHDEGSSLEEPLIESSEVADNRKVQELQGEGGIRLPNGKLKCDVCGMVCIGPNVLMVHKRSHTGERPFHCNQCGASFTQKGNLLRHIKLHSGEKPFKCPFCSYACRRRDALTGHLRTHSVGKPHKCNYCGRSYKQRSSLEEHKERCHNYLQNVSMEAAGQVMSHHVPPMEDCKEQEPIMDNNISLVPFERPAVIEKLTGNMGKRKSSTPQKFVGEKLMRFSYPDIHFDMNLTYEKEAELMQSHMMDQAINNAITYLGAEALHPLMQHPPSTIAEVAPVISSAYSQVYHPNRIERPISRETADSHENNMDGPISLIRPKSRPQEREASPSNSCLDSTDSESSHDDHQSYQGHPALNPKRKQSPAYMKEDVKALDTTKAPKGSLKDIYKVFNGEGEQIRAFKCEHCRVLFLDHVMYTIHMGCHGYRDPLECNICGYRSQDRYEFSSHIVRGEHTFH
T1 sequence (Q96SW2 whole entry): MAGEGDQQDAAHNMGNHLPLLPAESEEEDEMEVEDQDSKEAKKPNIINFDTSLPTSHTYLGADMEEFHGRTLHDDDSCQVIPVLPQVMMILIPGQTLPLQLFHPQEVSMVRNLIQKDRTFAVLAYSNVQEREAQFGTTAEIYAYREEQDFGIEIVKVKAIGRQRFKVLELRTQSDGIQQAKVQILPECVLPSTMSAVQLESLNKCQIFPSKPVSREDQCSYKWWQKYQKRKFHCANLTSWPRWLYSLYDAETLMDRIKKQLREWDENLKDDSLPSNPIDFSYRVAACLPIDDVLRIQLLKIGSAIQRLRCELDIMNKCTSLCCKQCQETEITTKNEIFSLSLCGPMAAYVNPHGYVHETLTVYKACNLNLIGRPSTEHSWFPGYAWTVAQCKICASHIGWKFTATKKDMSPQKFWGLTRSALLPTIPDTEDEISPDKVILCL
T1 sequence (Q16531 whole entry partner): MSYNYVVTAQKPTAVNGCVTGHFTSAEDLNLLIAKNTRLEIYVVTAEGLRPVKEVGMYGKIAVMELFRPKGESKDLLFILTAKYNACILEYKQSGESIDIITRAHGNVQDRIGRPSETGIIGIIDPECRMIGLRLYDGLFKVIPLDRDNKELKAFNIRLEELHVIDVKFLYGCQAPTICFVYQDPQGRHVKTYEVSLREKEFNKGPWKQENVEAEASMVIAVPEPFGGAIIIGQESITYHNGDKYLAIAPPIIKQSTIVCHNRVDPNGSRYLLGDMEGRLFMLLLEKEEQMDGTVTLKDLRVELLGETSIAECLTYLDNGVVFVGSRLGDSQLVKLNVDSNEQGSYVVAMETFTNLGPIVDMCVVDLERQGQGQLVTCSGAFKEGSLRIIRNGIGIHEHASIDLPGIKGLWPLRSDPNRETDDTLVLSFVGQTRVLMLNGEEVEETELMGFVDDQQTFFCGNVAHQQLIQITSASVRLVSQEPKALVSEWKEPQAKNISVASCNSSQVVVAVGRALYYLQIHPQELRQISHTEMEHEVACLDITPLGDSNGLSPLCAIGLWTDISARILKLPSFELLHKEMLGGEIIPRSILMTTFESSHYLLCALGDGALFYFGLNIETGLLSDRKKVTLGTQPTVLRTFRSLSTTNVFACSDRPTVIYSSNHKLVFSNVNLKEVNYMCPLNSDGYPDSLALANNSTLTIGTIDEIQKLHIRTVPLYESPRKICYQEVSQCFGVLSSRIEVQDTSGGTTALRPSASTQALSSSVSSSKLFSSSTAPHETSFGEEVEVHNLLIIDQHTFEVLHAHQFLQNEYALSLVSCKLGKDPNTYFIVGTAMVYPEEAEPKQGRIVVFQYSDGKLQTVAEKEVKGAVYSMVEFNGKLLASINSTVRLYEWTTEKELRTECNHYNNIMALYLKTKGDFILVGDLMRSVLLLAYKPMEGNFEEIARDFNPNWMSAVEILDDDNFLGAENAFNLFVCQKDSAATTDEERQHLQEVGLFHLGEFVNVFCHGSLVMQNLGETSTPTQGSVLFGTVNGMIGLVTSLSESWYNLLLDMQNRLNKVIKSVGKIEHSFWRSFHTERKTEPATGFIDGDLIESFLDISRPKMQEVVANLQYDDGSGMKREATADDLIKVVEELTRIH
T2 sequence (Q96SW2 whole entry partner): as the sequence (Q96SW2 whole entry) above
T2 sequence (Q16531 whole entry partner): as the sequence (Q16531 whole entry partner) above
T2 sequence (Q13422 whole entry): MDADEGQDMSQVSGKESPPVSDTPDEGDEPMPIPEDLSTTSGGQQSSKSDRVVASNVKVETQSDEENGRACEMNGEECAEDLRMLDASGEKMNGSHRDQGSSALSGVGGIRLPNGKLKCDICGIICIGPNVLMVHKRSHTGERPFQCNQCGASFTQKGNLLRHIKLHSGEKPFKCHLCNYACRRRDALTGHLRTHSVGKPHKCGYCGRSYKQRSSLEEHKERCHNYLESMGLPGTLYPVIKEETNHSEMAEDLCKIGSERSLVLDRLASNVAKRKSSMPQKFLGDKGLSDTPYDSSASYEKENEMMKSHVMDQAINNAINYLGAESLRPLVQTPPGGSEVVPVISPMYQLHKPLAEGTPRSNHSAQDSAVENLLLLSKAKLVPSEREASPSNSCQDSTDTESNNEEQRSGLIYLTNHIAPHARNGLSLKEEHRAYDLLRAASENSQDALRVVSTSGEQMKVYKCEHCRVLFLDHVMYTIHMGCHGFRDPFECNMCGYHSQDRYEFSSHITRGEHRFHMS

In the case of `O=C1CCC(N2Cc3cc(-c4nccc(CN5CCC5c5ccccc5)c4F)ccc3C2=O)C(=O)N1` (centres unmarked) [Example 193, 3-(5-(3-fluoro-4-((2-phenylazetidin-1-yl)methyl)pyridin-2-yl)-1-oxoisoindolin-2-yl) piperidine-2,6-dione], the DC50 was 120 nM on Helios and greater than 10000 nM at Ikaros. In addition, the figures for the Dmax at Helios and at Ikaros were 60% and 14%, respectively.
Turning to `Cc1cc2c(cc1-c1cc(CN(C)C)ccn1)CN(C1CCC(=O)NC1=O)C2=O` (centres unmarked) [Example 194, 3-(5-(4-((dimethylamino)methyl)pyridin-2-yl)-6-methyl-1-oxoisoindolin-2-yl)piperidine-2,6-dione], at Helios, the DC50 is greater than 10000 nM, the “Helios Dmax” value was determined as 5.2% and the greatest degradation seen (Dmax) worked out at 5.16%. Besides, at Ikaros, the DC50 was greater than 10000 nM; the “Ikaros Dmax” value is 0.04% and 3%.
As for `COC1(C)CN(Cc2ccnc(-c3ccc4c(c3)CN(C3CCC(=O)NC3=O)C4=O)c2)C1` (centres unmarked) [Example 196, 3-(5-(4-((3-methoxy-3-methylazetidin-1-yl)methyl)pyridin-2-yl)-1-oxoisoindolin-2-yl)piperidine-2,6-dione], at Helios, the half-maximal degradation concentration (DC50) stood at 45 nM and the Dmax came out at 78%. Also, at Ikaros, the DC50 is greater than 10000 nM and the Dmax was found to be 7%.
For `COC1CN(Cc2ccnc(-c3ccc4c(c3)CN(C3CCC(=O)NC3=O)C4=O)c2)C1` (centres unmarked) [Example 197, 3-(5-(4-((3-methoxyazetidin-1-yl)methyl)pyridin-2-yl)-1-oxoisoindolin-2-yl)piperidine-2,6-dione] the same measures were 42 nM, 75%, greater than 10000 nM and 20%.
For `CCOC1CN(Cc2ccnc(-c3ccc4c(c3)CN(C3CCC(=O)NC3=O)C4=O)c2)C1` (centres unmarked) [Example 198, 3-(5-(4-((3-ethoxyazetidin-1-yl)methyl)pyridin-2-yl)-1-oxoisoindolin-2-yl) piperidine-2,6-dione], in that order: 42 nM, 75%, greater than 10000 nM and 18%.
For `Cc1ccc(C2CCN(Cc3ccnc(-c4ccc5c(c4)CN(C4CCC(=O)NC4=O)C5=O)c3)CC2)cc1` (centres unmarked) [Example 199, 3-(1-oxo-5-(4-((4-(p-tolyl)piperidin-1-yl)methyl)pyridin-2-yl)isoindolin-2-yl)piperidine-2,6-dione], in that order: 130 nM, 60%, greater than 10000 nM and 3%.
For `CN(C)C(=O)C1CN(Cc2ccnc(-c3ccc4c(c3)CN(C3CCC(=O)NC3=O)C4=O)c2)C1` (centres unmarked) [Example 202, 1-((2-(2-(2,6-dioxopiperidin-3-yl)-1-oxoisoindolin-5-yl)pyridin-4-yl)methyl)-N,N-dimethylazetidine-3-carboxamide], at Helios, the DC50 came out at 190 nM and the Dmax was 69%. At Ikaros, the DC50 was greater than 10000 nM and the maximal degradation (Dmax) stood at 22%.
For `O=C1CCC(N2Cc3cc(-c4cc(CN5CC(c6cccnc6)C5)ccn4)ccc3C2=O)C(=O)N1` (centres unmarked) [Example 203, 3-(1-oxo-5-(4-((3-(pyridin-3-yl)azetidin-1-yl)methyl)pyridin-2-yl)isoindolin-2-yl)piperidine-2,6-dione] the same measures were 440 nM, 69%, greater than 10000 nM and 20%.
For `NC(=O)C1CCN1Cc1ccnc(-c2ccc3c(c2)CN(C2CCC(=O)NC2=O)C3=O)c1` (centres unmarked) [Example 206, 1-((2-(2-(2,6-dioxopiperidin-3-yl)-1-oxoisoindolin-5-yl)pyridin-4-yl)methyl)azetidine-2-carboxamide], in that order: 740 nM, 66%, greater than 10000 nM and 9%.
For `O=C1CCC(N2Cc3c(ccc(-c4cc(CN5CC(c6ccccc6)C5)ccn4)c3F)C2=O)C(=O)N1` (centres unmarked) [Example 208, 3-(4-Fluoro-1-oxo-5-(4-((3-phenylazetidin-1-yl)methyl)pyridin-2-yl)isoindolin-2-yl)piperidine-2,6-dione], on Helios, the DC50 worked out at 3 nM and the Dmax was 88%. For the same compound, at Ikaros, the DC50 was greater than 10000 nM and the Dmax worked out at 13%.
